From patent publication US10913745B2, “Octahydro-pyrrolo[3,4-c]-pyrrole derivatives and analogs thereof as autotaxin inhibitors” (Hoffmann-La Roche Inc., priority 2013, dated 2021)

Target: ATX (human His-tagged) (Homo sapiens (Human), UniProt Q13822)
Test: Human ATX enzyme inhibition assay (fluorescence quenching, MR121 substrate)
Assay type: biochemical
Settings: MR121 substrate 1 μM, ATX 30 nM final, 30° C.
Procedure: Human ATX Enzyme Inhibition Assay
ATX inhibition was measured by a fluorescence quenching assay using a specifically labeled substrate analogue (MR121 substrate). To obtain this MR121 substrate, BOC and TBS protected 6-amino-hexanoic acid (R)-3-({2-[3-(2-{2-[2-(2-amino-ethoxy)-ethoxy]-ethoxy}-ethoxy)-propionylamino]-ethoxy}-hydroxy-phosphoryloxy)-2-hydroxy-propyl ester (Ferguson et al., Org Lett 2006, 8 (10), 2023) was labeled with MR121 fluorophore (CAS 185308-24-1, 1-(3-carboxypropyl)-11-ethyl-1,2,3,4,8,9,10,11-octahydro-dipyrido[3,2-b:2′,3′-i]phenoxazin-13-ium) on the free amine of the ethanolamine side and then, after deprotection, subsequently with tryptophan on the side of the aminohexanoic acid. Assay working solutions were made as follows: Assay buffer (50 mM Tris-HCl, 140 mM NaCl, 5 mM KCl, 1 mM CaCl2, 1 mM MgCl2, 0.01% Triton-X-100, pH 8.0; ATX solution: ATX (human His-tagged) stock solution (1.08 mg/mL in 20 mM bicine, pH 8.5, 0.15 M NaCl, 10% glycerol, 0.3% CHAPS, 0.02% NaN3), diluted to 1.4-2.5× final concentration in assay buffer; MR121 substrate solution: MR121 substrate stock solution (800 μM MR121 substrate in DMSO), diluted to 2-5× final concentration in assay buffer. Test compounds (10 mM stock in DMSO, 8 μL) were obtained in 384 well sample plates (Corning Costar #3655) and diluted with 8 μL DMSO. Row-wise serial dilutions were made by transferring 8 μL cpd solution to the next row up to row O. The compound and control solutions were mixed five times and 2 μL were transferred to 384 well assay plates (Corning Costar #3702). Then, 15 μL of 41.7 nM ATX solution was added (30 nM final concentration), mixed five times and then incubated for 15 minutes at 30° C. 10 μL of MR121 substrate solution was added (1 μM final concentration), mixed 30 times and then incubated for 15 minutes at 30° C.

IC50 [nM] | SMILES
5 | NS(=O)(=O)c1ccc(C(=O)N2C[C@H]3CCN(C(=O)OCc4cc(Cl)cc(Cl)c4)C[C@@H]3C2)cc1 (single isomer, unassigned) [Example 9B, (+)-trans-3,5-dichlorobenzyl 2-(4-sulfamoylbenzoyl)hexahydro-1H-pyrrolo[3,4-c]pyridine-5(6H)-carboxylate]
1160 | CNS(=O)(=O)c1ccc(C(=O)N2C[C@H]3CN(C(=O)OCc4cc(Cl)cc(Cl)c4)C[C@H]3C2)cc1 [Example 1, (3aR,6aS)-3,5-Dichlorobenzyl 5-(4-(N-methylsulfamoyl)benzoyl)hexahydropyrrolo[3,4-c]pyrrole-2(1H)-carboxylate]
4 | NS(=O)(=O)c1ccc(C(=O)N2C[C@H]3CN(C(=O)OCc4cc(Cl)cc(Cl)c4)C[C@H]3C2)cc1 [Example 1.05, (3aR,6aS)-3,5-dichlorobenzyl 5-(4-sulfamoylbenzoyl)hexahydropyrrolo[3,4-c]pyrrole-2(1H)-carboxylate]
2 | NS(=O)(=O)c1ccc(C(=O)N2C[C@H]3CCN(C(=O)/C=C/c4ccc(OC(F)(F)F)cc4)CC[C@H]3C2)cc1 [Example 1.10, 4-{(3aS,8aR)-6-[(E)-3-(4-trifluoromethoxy-phenyl)-acryloyl]-octahydro-pyrrolo[3,4-d]azepine-2-carbonyl}-benzenesulfonamide]
1 | NS(=O)(=O)c1ccc(C(=O)N2C[C@H]3CN(C(=O)OCc4ccc(OC(F)(F)F)cc4)C[C@@H]3C2)cc1F [Example 1.11, (3aS,6aS)-5-(3-fluoro-4-sulfamoyl-benzoyl)-hexahydro-pyrrolo[3,4-c]pyrrole-2-carboxylic acid 4-trifluoromethoxy-benzyl ester]
440 | O=C(OCc1ccc(OC(F)(F)F)cc1)N1C[C@@H]2CN(C(=O)c3ccc(=O)[nH]c3)C[C@H]2C1 [Example 1.12, (3aS,6aS)-5-(6-oxo-1,6-dihydro-pyridine-3-carbonyl)-hexahydro-pyrrolo[3,4-c]pyrrole-2-carboxylic acid 4-trifluoromethoxy-benzyl ester]
1 | NS(=O)(=O)c1ccc(C(=O)N2C[C@H]3CN(C(=O)OCc4ccc(OC(F)(F)F)cc4)C[C@@H]3C2)nc1 [Example 1.13, (3aS,6aS)-5-(5-sulfamoyl-pyridine-2-carbonyl)-hexahydro-pyrrolo[3,4-c]pyrrole-2-carboxylic acid 4-trifluoromethoxy-benzyl ester]
64 | Cn1cc(S(N)(=O)=O)cc1C(=O)N1C[C@H]2CN(C(=O)OCc3ccc(OC(F)(F)F)cc3)C[C@@H]2C1 [Example 1.14, (3 aS,6aS)-5-(1-methyl-4-sulfamoyl-1H-pyrrole-2-carbonyl)-hexahydro-pyrrolo[3,4-c]pyrrole-2-carboxylic acid 4-trifluoromethoxy-benzyl ester]
58.5 | Cn1c(C(=O)N2C[C@H]3CN(C(=O)OCc4ccc(OC(F)(F)F)cc4)C[C@@H]3C2)ccc1S(N)(=O)=O [Example 1.15, (3 aS,6aS)-5-(1-methyl-5-sulfamoyl-1H-pyrrole-2-carbonyl)-hexahydro-pyrrolo[3,4-c]pyrrole-2-carboxylic acid 4-trifluoromethoxy-benzyl ester]
25 | O=C(OCc1ccc(OC(F)(F)F)cc1)N1C[C@@H]2CN(C(=O)c3ccc(O)cn3)C[C@H]2C1 [Example 1.17, (3aS,6aS)-5-(5-hydroxy-pyridine-2-carbonyl)-hexahydro-pyrrolo[3,4-c]pyrrole-2-carboxylic acid 4-trifluoromethoxy benzyl ester]
13 | O=C(OCc1ccc(OC(F)(F)F)cc1)N1C[C@@H]2CN(C(=O)c3ccc(O)cc3)C[C@H]2C1 [Example 1.18, (3aS,6aS)-5-(4-hydroxy-benzoyl)-hexahydro-pyrrolo[3,4-c]pyrrole-2-carboxylic acid 4-trifluoromethoxy-benzyl ester]
4 | NS(=O)(=O)c1ccc(C(=O)N2C[C@H]3CN(C(=O)OCc4ccc(OC(F)(F)F)cc4)C[C@@H]3C2)c(F)c1 [Example 1.19, (3 aS,6aS)-5-(2-fluoro-4-sulfamoyl-benzoyl)-hexahydro-pyrrolo[3,4-c]pyrrole-2-carboxylic acid 4-trifluoromethoxy-benzyl ester]
19 | NS(=O)(=O)c1ccc(C(=O)N2C[C@H]3CN(C(=O)CCc4ccc(OC(F)(F)F)cc4)C[C@@H]3C2)cn1 [Example 1.20, 5-{(3 aR,6aR)-5-[3-(4-trifluoromethoxy-phenyl)-propionyl]-hexahydro-pyrrolo[3,4-c]pyrrole-2-carbonyl}-pyridine-2-sulfonic acid amide]

Continued, compound first:

SMILES | IC50 [nM]
NS(=O)(=O)c1ccc(C(=O)N2C[C@H]3CCN(C(=O)OCc4cc(Cl)cc(Cl)c4)C[C@@H]3C2)cc1 (racemic) [Example 1.03, trans-3,5-dichlorobenzyl 2-(4-sulfamoylbenzoyl)hexahydro-1H-pyrrolo[3,4-c]pyridine-5(6H)-carboxylate] | 7
NS(=O)(=O)c1ccc(C(=O)N2C[C@H]3CCN(C(=O)OCc4cc(Cl)cc(Cl)c4)C[C@@H]3C2)cc1 (single isomer, unassigned) [Example 9A, (−)-trans-3,5-Dichlorobenzyl 2-(4-sulfamoylbenzoyl)hexahydro-1H-pyrrolo[3,4-c]pyridine-5(6H)-carboxylate] | 4
O=C(OCc1cc(Cl)cc(Cl)c1)N1C[C@@H]2CN(C(=O)c3ccc(O)cn3)C[C@@H]2C1 [Example 1.01, (3aR,6aS)-3,5-dichlorobenzyl 5-(5-hydroxypicolinoyl)hexahydropyrrolo[3,4-c]pyrrole-2(1H)-carboxylate] | 293
O=C(OCc1cc(Cl)cc(Cl)c1)N1C[C@@H]2CN(C(=O)c3ccc(O)cc3)C[C@@H]2C1 [Example 1.02, (3aR,6aS)-3,5-dichlorobenzyl 5-(4-hydroxybenzoyl)hexahydropyrrolo[3,4-c]pyrrole-2(1H)-carboxylate] | 444
NS(=O)(=O)c1ccc(C(=O)N2C[C@H]3CN(C(=O)OCc4cc(Cl)cc(Cl)c4)C[C@H]3C2)s1 [Example 1.04, (3aR,6aS)-3,5-dichlorobenzyl 5-(5-sulfamoylthiophene-2-carbonyl)hexahydropyrrolo[3,4-c]pyrrole-2(1H)-carboxylate] | 8
Nc1ccc(C(=O)N2C[C@H]3CN(C(=O)OCc4cc(Cl)cc(Cl)c4)C[C@H]3C2)cc1 [Example 1.06, (3aR,6aS)-3,5-dichlorobenzyl 5-(4-aminobenzoyl)hexahydropyrrolo[3,4-c]pyrrole-2(1H)-carboxylate] | 255
Nc1ccc(C(=O)N2C[C@H]3CN(C(=O)OCc4cc(Cl)cc(Cl)c4)C[C@H]3C2)nc1 [Example 1.07, (3aR,6aS)-3,5-dichlorobenzyl 5-(5-aminopicolinoyl)hexahydropyrrolo[3,4-c]pyrrole-2(1H)-carboxylate] | 6110
N#Cc1ccc(C(=O)N2C[C@H]3CN(C(=O)OCc4cc(Cl)cc(Cl)c4)C[C@H]3C2)cc1 [Example 1.08, (3aR,6aS)-3,5-dichlorobenzyl 5-(4-cyanobenzoyl)hexahydropyrrolo[3,4-c]pyrrole-2(1H)-carboxylate] | 1200
COC(=O)c1ccc(C(=O)N2C[C@H]3CN(C(=O)OCc4cc(Cl)cc(Cl)c4)C[C@H]3C2)cc1 [Example 1.09, (3aR,6aS)-3,5-dichlorobenzyl 5-(4-(methoxycarbonyl)benzoyl)hexahydropyrrolo[3,4-c]pyrrole-2(1H)-carboxylate] | 118
CCOc1cc(C(=O)N2C[C@@H]3CN(C(=O)c4ccc(S(N)(=O)=O)nc4)C[C@H]3C2)nc2ccccc12 [Example 1.21, 5-((3 aS,6aS)-5-(4-ethoxyquinoline-2-carbonyl)octahydropyrrolo[3,4-c]pyrrole-2-carbonyl)pyridine-2-sulfonamide] | 118
CC(C)(C)C(=O)Nc1cc(C#N)ccc1COC(=O)N1C[C@@H]2CN(C(=O)c3ccc(S(N)(=O)=O)c(F)c3)C[C@H]2C1 [Example 1.22, (3aS,6aS)-5-(3-fluoro-4-sulfamoyl-benzoyl)-hexahydro-pyrrolo[3,4-c]pyrrole-2-carboxylic acid 4-cyano-2-(2,2-dimethyl-propionylamino)-benzyl ester] | 7
CC(C)(C)C(=O)Nc1cc(C#N)ccc1COC(=O)N1C[C@@H]2CN(C(=O)c3ccc(S(N)(=O)=O)nc3)C[C@H]2C1 [Example 1.23, (3aS,6aS)-5-(6-sulfamoyl-pyridine-3-carbonyl)-hexahydro-pyrrolo[3,4-c]pyrrole-2-carboxylic acid 4-cyano-2-(2,2-dimethyl-propionylamino)-benzyl ester] | 4
